{"source": "patent US8309356B2", "about": "“Pseudocomplementary oligonucleotides for targeted gene therapy” (Yale University, priority 2009, dated 2012)", "key": {"supF reporter gene": {"system": "supF reporter gene", "assay": "Induced recombination / gene correction of supF reporter gene in SV40-based shuttle vector transfected into COS cells, scored in indicator bacteria", "format": "cell-based, monkey", "conditions": "plasmid co-mixed with binding molecule and supF1-donor DNA, two days", "text": "In this assay, each targeting oligomer was designed, including the pair of pcPNAs, the TFO (AG30) and the bis-PNA (bis-PNA5), to bind to a selected site in the supF reporter gene contained in an SV40-based shuttle vector. In this vector construct, the supF gene has an inactivating single base pair mutation which can be corrected by recombination with a short single stranded oligonucleotide donor. The pcPNAs were designed to bind to a mixed sequence site 62 by away from the mutation, whereas the TFO and the bis-PNA were targeted to a G:C by rich polypurine site 24 by away from the mutation. The plasmid vector DNA was co-mixed with selected molecules, and the samples were transfected into monkey COS cells. Two days were allowed for repair/recombination/replication, and the episomal vector DNA was harvested for genetic analysis of the supF gene in indicator bacteria, as previously described (by Chan, et al., J. Biol. Chem., 274:11541-11548 (1999)). As expected, and consistent with other published work, the TFO (AG30) and the bis-PNAS induced gene correction in the supF gene at frequencies of 0.14% and 0.21%, respectively (FIG. 4). […] A pair of control pcPNAs (pcPNA3 and pcPNA4) with 5 mismatches each to the supF target site were ineffective, showing the sequence specificity of the process."}, "[1]": {"system": "chromosomal GFP/IVS2-1^G→A gene", "assay": "Gene correction of chromosomal GFP/IVS2-1G→A fusion gene in CHO reporter cells, GFP-positive cells quantified by FACS", "format": "cell-based", "conditions": "with β-globin/GFP donor DNA (or donor alone)", "protocol": "The HinDIII-NotI fragments of these plasmids, containing the GFP sequence interrupted by IVS2-1 or IVS2 wt construct, were subcloned into the multiple cloning site of pcDNA5/FRT (Invitrogen, Carlsbad, Calif.), and the resulting vectors were stably transfected into CHO-Flp host cell lines using the Flp-In System according to manufacturer's instructions (Invitrogen, Carlsbad Calif.). […] The resulting CHO-GFP/IVS2-1^G→A cells and control CHO-GFP/IVS2-1^WT cells were grown in Ham's F12 media supplemented with 10% FBS and 2 mM L-glutamine.\n1×10^6 cells in 100 μl of media were mixed with selected pcPNAs (6 μM) and GFP-DNA (12 μM) oligonucleotides and electroporated in 0.4 cm cuvettes using a Bio-Rad Gene Pulser (280V, […], Hercules, Calif.). Cells were replated in 60 mm dishes following electroporation and allowed to expand to approximately 90% confluency (2-3 days). […] Two days later as indicated, cells were then visualized via fluorescence microscopy or analyzed by FACS.\nCells were visualized using a Zeiss Axiovert 200 (Thornwood, N.Y.) fluorescent microscope at 100× and 200× magnification. […] Cells were analyzed using a Becton Dickinson FACS-Calibur flow cytometer (Franklin Lakes, N.J.). […] Collected data were then analyzed using the FlowJo software (Tree Star Inc., Ashland, Oreg.). […]"}}, "data": [{"substance": "JJJJJTTJJT-O-O-O-TCCTTCCCCC-(Lys)3 (JJJJJTTJJT-O-O-O-TCCTTCCCCC-(Lys)_{3}; as printed in the source, key not given here) [Bis-PNA5]", "values": [{"measurement": "Frequency of gene correction in the supF gene (recombination frequency)", "setting": "supF reporter gene", "result": 0.21, "unit": "%"}]}, {"substance": "GTTCAGCGTGTCCGGCGAGGGCGAGGTGAGTCTATGGGACCCTTGATGTTT (listed as DNA, chemistry not given here) [GFP-donor DNA]", "values": [{"measurement": "Frequency of gene correction", "setting": "[1]; S-phase synchronized cells, SAHA, single treatment", "result": 0.29, "unit": "%"}, {"measurement": "Frequency of gene correction", "setting": "[1]; asynchronous CHO-GFP/IVS2-1G→A cells, single electroporation, no additive", "result": 0.005, "unit": "%"}]}, {"substance": "AGGAAGGGGGGGGTGGTGGGGGAGGGGGAG (chemistry not given here) [AG30]", "values": [{"measurement": "Frequency of gene correction in the supF gene (recombination frequency)", "setting": "supF reporter gene", "result": 0.14, "unit": "%"}]}]}
